This note sets out measurements from patent EP0456183B1, “Spiro dibenzosuberane derivatives” (SHIONOGI SEIYAKU KABUSHIKI KAISHA, priority 1990, dated 1991).

Bounds are passed on as bounds.

The target in the assay is T1, PCP (Phencylidine) receptor (Rattus norvegicus, UniProt P35439).
T1 construct: the pellets were then suspended in 5mM Tris-HCI buffer and used as the receptor preparation; from tissue; host or cells: rat (male Slc-Wistar) cerebral cortex membrane preparation
Nature of the assay: Binding test against PCP (Phencylidine) receptor, 3H-TCP displacement in rat cortex membrane preparation. Further details: species or system rats (male, Slc-Wistar rat). To be noted: rat cortex receptor preparation (0.2mg protein/ml), labelled ligand 3H-TCP, 25 °C 30 minutes. As for the experimental part:
Binding test against PCP (Phencylidine) receptor Experiment
After the decapitation of rats (male, Slc-Wistar rat, 10 15 weeks age), the cortex tissues was rapidly removed and each was weighed. The tissue was homogenized with ten-fold amount of ice-cold 50mM Tris-HCI buffer (pH7.4), and centrifuged at 40,000 x g for 10 minutes. This procedure is repeated 3 times. Then the obtained sample was freeze-dried in liquid nitrogen and preserved at -80 ° C On the test day, the sample was thawed at room temperature and centrifuged at 40,000 x g for 10 minutes, the pellets were then suspended in 5mM Tris-HCI buffer and used as the receptor preparation (0.2mg protein/ml). The preparation was added to the mixture containing the labelled ligand (^3H-TCP, […]) and the test drug, and the incubation was carried out (25 °C 30 minutes). The reaction was stopped by rapid filtering through Whatman GF/C filter and the filtrate was washed. Radioactivity on filters was determined by liquid scintillation counter and Ki value was calculated. The Whatmann GF/C filter was soaked in 0.05 % polyethyleneimine. (Literature : Vignon, J. et al., Brain R.,280; 194-197 (1983))
A word on the Ki: it is the dissociation constant of the complex between target and ligand, obtained from inhibition or displacement. Read a low Ki as higher affinity. As for `Cc1ccc2c(c1)C1(CCCN1Cc1ccccc1)c1ccccc1CC2` (stereo not drawn) [I a-11], the Ki was greater than 0.71 µM. `CCN1CCCC12c1ccccc1CCc1ccc(C)cc12` (stereo not drawn) [I a-10] had a Ki of 0.25 µM. This counts as sub-micromolar. In turn, `c1ccc2c(c1)CCc1ccccc1C21CCCN1` [I a-1, Spiro(dibenzosuberane-5,2'-pyrrolidine)] gave an inhibitory constant (Ki) of 0.047 µM. For `CCN1CCCC12c1ccccc1CCc1ccccc12` [I a-3, Spiro[dibenzosuberane-5,2'-(1-ethylpyrrolidine)]], affinity was put at a Ki of 0.62 µM. Compound `Cc1ccc2c(c1)C1(CCCN1)c1ccccc1CC2` (stereo not drawn) [I a-7] registered a Ki of 0.031 µM. The result for `CCCN1CCCC12c1ccccc1CCc1ccc(C)cc12` (stereo not drawn) [I a-9, Spiro[3-methyldibenzosuberane-5,2'-(1-n-propylpyrrolidine)]] reads 0.77 µM.

In the case of `CCN1CCCC12c1ccccc1CCc1ccc(Cl)cc12` (stereo not drawn) [I a-14], the inhibitory constant (Ki) is 0.54 µM.

Regarding `Cc1ccc2c(c1)C1(CCCN1C)c1ccccc1CC2` (stereo not drawn) [I a-8], the affinity corresponds to a Ki of 0.51 µM. `Clc1ccc2c(c1)C1(CCCN1)c1ccccc1CC2` (stereo not drawn) [I a-13, Spiro(3-chlorodibenzosuberane-5,2'-pyrrolidine)] displayed a Ki of 0.023 µM.
